Reference: patent publication US20230085307A1, “PYRIDAZINONE COMPOUND AND HERBICIDE” (NISSAN CHEMICAL CORPORATION, priority 2019, published 2023)

Tests used:
Japanese bulrush = assay: Test Example 1: herbicidal activity, application before weed generation under submerged conditions (Table 16, symbol B); format: in vivo, Japanese bulrush (Schoenoplectus juncoides); conditions: 320 g/ha applied herbicide
How it was run: (§1)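 Submerged Wagner pots (alluvial soil, 4 cm water) sown with weed seeds and planted with 2.5-leaf rice seedlings; emulsifiable concentrate diluted in water applied to water surface on sowing day. Held in greenhouse at 25-30 °C; injury scored 0-5 by herbicidal rate after three weeks.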

Chinese sprangletop = assay: Test Example 3: herbicidal effect by foliage application, Wagner pot (Table 18, symbol D); format: in vivo, chinese sprangletop (Leptochloa chinensis); conditions: for herbicidal effect on D: Chinese sprangletop: amount of applied herbicide 320 g/ha; for herbicidal effect on D (Chinese sprangletop), rating 0-5: 320 g/ha
How it was run: (§2)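 Plants were sown in alluvial soil held under 0.1–0.5 cm standing water and grown 14 days in a greenhouse at 25–30 °C. An emulsifiable formulation, water-diluted to the set dose, was then sprayed onto the foliage, and effects were scored three weeks later using previously defined criteria.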

redroot pigweed = assay: Test Example 5: herbicidal effect by foliage application, plastic box (Table 20, symbol N); format: in vivo, redroot pigweed (Amaranthus retroflexus); conditions: foliage application
How it was run: (§3)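 Post-emergence foliar test in sterilized diluvial soil. Compound applied as water-diluted emulsion at a predetermined rate to 14-day-old plants; evaluation at three weeks.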

barnyard grass [1] = assay: Test Example 4: herbicidal effect by soil treatment (Table 19, symbol H); format: in vivo, barnyard grass (Echinochloa crus-galli); conditions: for herbicidal effect on H: barnyard grass: amount of applied herbicide 320 g/ha
How it was run: (§4)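 Emulsion of test compound, water-diluted to predetermined amount, sprayed on soil after sowing (seed depth ~1.5 cm, sterilized diluvial soil). Greenhouse, 25–30° C. Effect graded at three weeks post-spray.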

lambsquarters [2] = assay: Test Example 4: herbicidal effect by soil treatment (Table 19, symbol O); format: in vivo, lambsquarters (Chenopodium album); conditions: for herbicidal effect on O: lambsquarters: amount of applied herbicide 320 g/ha
How it was run: as §4

late watergrass = assay: Test Example 2: herbicidal activity, application during weed generation under submerged conditions (Table 17, symbol A); format: in vivo, late watergrass (Echinochloa oryzicola); conditions: AAH 320 g/ha; application during weed generation, submerged conditions
How it was run: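 In this pot test, flooded alluvial soil (water depth 4 cm) holds all three species sown as a mixture. Once seedlings have one to two leaves, the compound's emulsion, thinned with water to the intended dose, is poured on the water; grading follows after three weeks on the earlier criteria.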

lambsquarters [3] = assay: Test Example 5: herbicidal effect by foliage application, plastic box (Table 20, symbol O); format: in vivo, lambsquarters (Chenopodium album); conditions: foliage application
How it was run: as §3

velvetleaf [4] = assay: Test Example 5: herbicidal effect by foliage application, plastic box (Table 20, symbol M); format: in vivo, velvetleaf (Abutilon theophrasti); conditions: foliage application
How it was run: as §3

windgrass = assay: Test Example 4: herbicidal effect by soil treatment (Table 19, symbol L); format: in vivo, windgrass (Apera spica-venti); conditions: for herbicidal effect on L: windgrass: amount of applied herbicide 320 g/ha
How it was run: as §4

blackgrass = assay: Test Example 5: herbicidal effect by foliage application, plastic box (Table 20, symbol J); format: in vivo, blackgrass (Alopecurus myosuroides); conditions: foliage application
How it was run: as §3

persian speedwell = assay: Test Example 4: herbicidal effect by soil treatment (Table 19, symbol R); format: in vivo, Persian speedwell (Veronica persica); conditions: for herbicidal effect on R: persian speedwell: amount of applied herbicide 320 g/ha
How it was run: as §4

barnyard grass [5] = assay: Test Example 3: herbicidal effect by foliage application, Wagner pot (Table 18, symbol H); format: in vivo, barnyard grass (Echinochloa crus-galli); conditions: for herbicidal effect on H: barnyard grass: amount of applied herbicide 320 g/ha; for herbicidal effect on H (barnyard grass), rating 0-5: 320 g/ha
How it was run: as §2

velvetleaf [6] = assay: Test Example 4: herbicidal effect by soil treatment (Table 19, symbol M); format: in vivo, velvetleaf (Abutilon theophrasti); conditions: for herbicidal effect on M: velvetleaf: amount of applied herbicide 320 g/ha
How it was run: as §4

oval-leafed pondweed = assay: Test Example 1: herbicidal activity, application before weed generation under submerged conditions (Table 16, symbol C); format: in vivo, oval-leafed pondweed (Monochoria vaginalis); conditions: 320 g/ha applied herbicide
How it was run: as §1

barnyard grass [7] = assay: Test Example 5: herbicidal effect by foliage application, plastic box (Table 20, symbol H); format: in vivo, barnyard grass (Echinochloa crus-galli); conditions: foliage application
How it was run: as §3

Italian ryegrass = assay: Test Example 5: herbicidal effect by foliage application, plastic box (Table 20, symbol K); format: in vivo, Italian ryegrass (Lolium multiflorum); conditions: foliage application
How it was run: as §3

[8] = 320 g/ha, evaluated three weeks after application
[9] = AAH 320 g/ha, three weeks after application

| Structure (SMILES) | Herbicidal effect on B: Japanese bulrush (grade 0-5) (Japanese bulrush) | herbicidal effect on D: Chinese sprangletop (Chinese sprangletop) | herbicidal effect on N: redroot pigweed (criteria 0-5) (redroot pigweed; [8]) | herbicidal effect on H: barnyard grass (barnyard grass [1]) | herbicidal effect on O: lambsquarters (lambsquarters [2]) | herbicidal effect rating, A: late watergrass (late watergrass) | herbicidal effect on O: lambsquarters (criteria 0-5) (lambsquarters [3]; [8]) | herbicidal effect on M: velvetleaf (criteria 0-5) (velvetleaf [4]; [8]) | herbicidal effect on L: windgrass (windgrass) | herbicidal effect on J: blackgrass (criteria 0-5) (blackgrass; [8]) | herbicidal effect on R: persian speedwell (persian speedwell) | herbicidal effect on H: barnyard grass (barnyard grass [5]) | herbicidal effect on M: velvetleaf (velvetleaf [6]) | Herbicidal effect on C: oval-leafed pondweed (grade 0-5) (oval-leafed pondweed) | herbicidal effect on H: barnyard grass (criteria 0-5) (barnyard grass [7]; [8]) | herbicidal effect on K: Italian ryegrass (criteria 0-5) (Italian ryegrass; [8]) | herbicidal effect on D (Chinese sprangletop), rating 0-5 (Chinese sprangletop) | herbicidal effect on H (barnyard grass), rating 0-5 (barnyard grass [5]) | other results |
| --- | --- | --- | --- | --- | --- | --- | --- | --- | --- | --- | --- | --- | --- | --- | --- | --- | --- | --- | --- |
| CCCC(=O)Oc1c(C)nn(C)c(=O)c1-c1c(-c2cccc(OCC(C)C)c2)sc2ccc(F)cc12 [2-222] | 4 (Herbicidal rate of 70% or more and less than 90%) | 5 (Herbicidal rate of 90% or more (almost completely withered)) | 5 (Herbicidal rate of 90% or more (almost completely withered)) | 5 (Herbicidal rate of 90% or more (almost completely withered)) | 4 (Herbicidal rate of 70% or more and less than 90%) | 2 (Herbicidal rate of 20% or more and less than 40%) | 5 (Herbicidal rate of 90% or more (almost completely withered)) | 5 (Herbicidal rate of 90% or more (almost completely withered)) | 4 (Herbicidal rate of 70% or more and less than 90%) | 4 (Herbicidal rate of 70% or more and less than 90%) | 5 (Herbicidal rate of 90% or more (almost completely withered)) | 5 (Herbicidal rate of 90% or more (almost completely withered)) | 3 (Herbicidal rate of 40% or more and less than 70%) | 4 (Herbicidal rate of 70% or more and less than 90%) | 5 (Herbicidal rate of 90% or more (almost completely withered)) | 4 (Herbicidal rate of 70% or more and less than 90%) |  |  |  |
| CCCC(=O)Oc1c(C)nn(C)c(=O)c1-c1c(-c2ccc(OC)c(F)c2)sc2ccc(F)cc12 [2-087] | 4 (Herbicidal rate of 70% or more and less than 90%) |  |  |  |  | 0 (Herbicidal rate of 5% or less (almost no effect)) |  |  |  |  |  |  |  | 4 (Herbicidal rate of 70% or more and less than 90%) |  |  | 2 (Herbicidal rate of 20% or more and less than 40%) | 3 (Herbicidal rate of 40% or more and less than 70%) | herbicidal effect on N: redroot pigweed (redroot pigweed; [8]): 4 (Herbicidal rate of 70% or more and less than 90%); herbicidal effect rating, H: barnyard grass (barnyard grass [1]; 320 g/ha): 0 (Herbicidal rate of 5% or less (almost no effect)); herbicidal effect rating, O: lambsquarters (lambsquarters [2]; 320 g/ha): 5 (Herbicidal rate of 90% or more (almost completely withered)); herbicidal effect on O: lambsquarters (lambsquarters [3]; [8]): 4 (Herbicidal rate of 70% or more and less than 90%); herbicidal effect on M: velvetleaf (velvetleaf [4]; [8]): 5 (Herbicidal rate of 90% or more (almost completely withered)); herbicidal effect rating, L: windgrass (windgrass; 320 g/ha): 0 (Herbicidal rate of 5% or less (almost no effect)); herbicidal effect on J: blackgrass (blackgrass; [8]): 0 (Herbicidal rate of 5% or less (almost no effect)); herbicidal effect rating, R: persian speedwell (persian speedwell; 320 g/ha): 5 (Herbicidal rate of 90% or more (almost completely withered)); herbicidal effect rating, M: velvetleaf (velvetleaf [6]; 320 g/ha): 3 (Herbicidal rate of 40% or more and less than 70%); herbicidal effect on H: barnyard grass (barnyard grass [7]; [8]): 0 (Herbicidal rate of 5% or less (almost no effect)); herbicidal effect on K: Italian ryegrass (Italian ryegrass; [8]): 1 (Herbicidal rate of 5% or more and less than 20%) |
| C#CCOc1ccc(-c2sc3ccccc3c2-c2c(O)c(C)nn(C)c2=O)cc1 [1-136] | 2 (Herbicidal rate of 20% or more and less than 40%) |  |  |  |  | 0 (Herbicidal rate of 5% or less (almost no effect)) |  |  |  |  |  |  |  | 0 (Herbicidal rate of 5% or less (almost no effect)) |  |  | 4 (Herbicidal rate of 70% or more and less than 90%) | 5 (Herbicidal rate of 90% or more (almost completely withered)) | N: redroot pigweed, herbicidal effect (redroot pigweed; [9]): 4 (Herbicidal rate of 70% or more and less than 90%); H: barnyard grass, herbicidal effect rating (barnyard grass [1]; AAH 320 g/ha): 4 (Herbicidal rate of 70% or more and less than 90%); O: lambsquarters, herbicidal effect rating (lambsquarters [2]; AAH 320 g/ha): 5 (Herbicidal rate of 90% or more (almost completely withered)); O: lambsquarters, herbicidal effect (lambsquarters [3]; [9]): 4 (Herbicidal rate of 70% or more and less than 90%); M: velvetleaf, herbicidal effect (velvetleaf [4]; [9]): 4 (Herbicidal rate of 70% or more and less than 90%); L: windgrass, herbicidal effect rating (windgrass; AAH 320 g/ha): 0 (Herbicidal rate of 5% or less (almost no effect)); J: blackgrass, herbicidal effect (blackgrass; [9]): 1 (Herbicidal rate of 5% or more and less than 20%); R: persian speedwell, herbicidal effect rating (persian speedwell; AAH 320 g/ha): 4 (Herbicidal rate of 70% or more and less than 90%); M: velvetleaf, herbicidal effect rating (velvetleaf [6]; AAH 320 g/ha): 3 (Herbicidal rate of 40% or more and less than 70%); H: barnyard grass, herbicidal effect (barnyard grass [7]; [9]): 4 (Herbicidal rate of 70% or more and less than 90%); K: Italian ryegrass, herbicidal effect (Italian ryegrass; [9]): 5 (Herbicidal rate of 90% or more (almost completely withered)) |
| Cc1nn(C)c(=O)c(-c2c(-c3ccc(C(F)F)cc3)sc3ccc(F)cc23)c1O [2-227] | 0 (Herbicidal rate of 5% or less (almost no effect)) | 3 (Herbicidal rate of 40% or more and less than 70%) | 5 (Herbicidal rate of 90% or more (almost completely withered)) | 5 (Herbicidal rate of 90% or more (almost completely withered)) | 5 (Herbicidal rate of 90% or more (almost completely withered)) | 0 (Herbicidal rate of 5% or less (almost no effect)) | 5 (Herbicidal rate of 90% or more (almost completely withered)) | 5 (Herbicidal rate of 90% or more (almost completely withered)) | 0 (Herbicidal rate of 5% or less (almost no effect)) | 3 (Herbicidal rate of 40% or more and less than 70%) | 4 (Herbicidal rate of 70% or more and less than 90%) | 5 (Herbicidal rate of 90% or more (almost completely withered)) | 5 (Herbicidal rate of 90% or more (almost completely withered)) | 0 (Herbicidal rate of 5% or less (almost no effect)) | 5 (Herbicidal rate of 90% or more (almost completely withered)) | 4 (Herbicidal rate of 70% or more and less than 90%) |  |  |  |
